Experiment [1] concerns the target T1, EP2 receptor (Homo sapiens, UniProt P43116).
T1 construct: endogenous in cells; host or cells: SF767 human glioblastoma cells
In words: PGE2-mediated cAMP signaling in LN229 glioma cells. The class given is cell-based. The conditions noted are these: for PGE2-promoted cAMP synthesis: antagonist 1 μM and 10 μM, n=5. From the text:
(§1) FIG. 1. Bar graph showing PGE2 mediated cAMP signaling via EP2 receptor in human malignant glioma cells LN229 (top) and SF767 (bottom).
(§2) (n=5, *P<0.05; ***P<0.001, one-way ANOVA and post-hoc Bonferroni test). Data are shown as mean+SEM.

The subject of another experiment is GBM cells LN229. Briefly: Wound closure (migration) of COX-2-overexpressing LN229 cells. The class given is cell-based, human. The conditions noted are these: 10 μM, n=3, compared with COX-2 overexpression group.
Experiment [2] deals with T1, EP2 receptor. Briefly: PGE2-mediated cAMP signaling in SF767 glioma cells. The experiment is classed as cell-based. The conditions noted are these: for PGE2-promoted cAMP synthesis: antagonist 1 μM and 10 μM, n=5.
From the text: as §1, §2

The next experiment deals with human GBM cells SF767. Briefly: Cell invasion of COX-2-overexpressing SF767 cells. The experiment is classed as cell-based. The conditions noted are these: 10 μM, measured after 48 h, n=4, P<0.01 vs control.
In experiment [3] the test system is flank tumors formed by human GBM cells SF767. In words: Flank (subcutaneous) tumor xenograft in athymic nude mice. The experiment is classed as in vivo. The conditions noted are these: 10 mg/kg, p.o., b.i.d.; measured 4 weeks after xenograft surgery; n=7, P<0.05. From the text: FIG. 4. Bar graph comparing flank tumor size in athymic nude mice treated with vehicle versus mice treated with TG6-10-1 measured 4 weeks after xenograft surgery.
Data are shown as mean+SEM.

In experiment [4] the test system is intracranial tumors formed by human GBM cells LN229. Briefly: Intracranial (orthotopic) tumor xenograft in athymic nude mice. The experiment is classed as in vivo. The text has this:
FIG. 8. Graph showing that the survival rate of mice harboring intracranial tumors derived from human GBM cells LN229 receiving TG6-10-1 is greater than the survival rate of mice receiving vehicle only.
Data are shown as mean±SEM.
Survival rates of mice that harbored intracranial tumors derived from human GBM cells LN229 after receiving vehicle (n=20) or TG6-10-1 (n=28) for 28 days (P=2.835E-4 Kaplan-Meier survival analysis with post-hoc log-rank test).

[5] abbreviates: concentration-dependent, forskolin 100 μM.

T1 sequence (P43116 whole entry): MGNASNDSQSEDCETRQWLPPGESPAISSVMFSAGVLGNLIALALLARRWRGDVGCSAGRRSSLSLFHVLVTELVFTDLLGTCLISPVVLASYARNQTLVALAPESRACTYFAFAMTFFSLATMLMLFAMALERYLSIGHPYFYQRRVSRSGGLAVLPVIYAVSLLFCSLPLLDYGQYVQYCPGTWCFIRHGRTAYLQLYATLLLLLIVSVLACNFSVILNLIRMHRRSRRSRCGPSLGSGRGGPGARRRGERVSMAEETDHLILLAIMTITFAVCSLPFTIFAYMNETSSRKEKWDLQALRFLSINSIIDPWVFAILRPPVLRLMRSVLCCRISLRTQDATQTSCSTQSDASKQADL

As for `COc1cc(/C=C/C(=O)NCCn2c(C)cc3ccccc32)cc(OC)c1OC` [TG4-155], the “PGE2-promoted cAMP synthesis” value on EP2 receptor [1] and at EP2 receptor [2] was “largely blocked” throughout. Further, in the experiment on GBM cells LN229, the “wound closure increased by COX-2 overexpression” value was “attenuated”. Besides, in the experiment with human GBM cells SF767, the “cell invasion increased by COX-2 overexpression” value was “attenuated”.

As to `CCCCC[C@H](O)/C=C/[C@H]1[C@H](O)CC(=O)[C@@H]1C/C=C\CCCC(=O)O` [PGE2, Prostaglandin E2, reference compound], the cAMP levels entry at EP2 receptor [1] (setting [5]) and at EP2 receptor [2] (setting [5]) was “increases cAMP levels” in each case.

On to `COc1cc(/C=C/C(=O)NCCn2c(C(F)(F)F)cc3ccccc32)cc(OC)c1OC` [TG6-10-1], for which the “growth of flank tumors” value in experiment [3] is “reduced the growth”. In experiment [4] (10 mg/kg, p.o., b.i.d., bioluminescence weekly, n=7, P<0.01), the “growth of intracranial tumors” value is on record as “reduced the growth”. Moreover, in experiment [4] (treatment for 28 days, vehicle n=20, TG6-10-1 n=28, P=2.835E-4, Kaplan-Meier, log-rank), the “survival of mice harboring intracranial tumors” value is reported as “improved survival”. Moreover, the “PGE2-promoted cAMP synthesis” value at EP2 receptor [1] and at EP2 receptor [2] was “largely blocked” in each case. Further, in the experiment with GBM cells LN229, the “wound closure increased by COX-2 overexpression” value is reported as “attenuated”. Further, the “cell invasion increased by COX-2 overexpression” value in the experiment with human GBM cells SF767 is listed as “attenuated”.

These data come from patent US10758516B2, “Methods and compositions for the treatment of gliomas” (University of Cincinnati, priority 2017, dated 2020).
